# How the values were obtained:
# LP-BM5 MuLV = LP-BM5 MuLV UV-XC plaque assay; assay type: cell-based, Murine Leukemia Virus; settings: for inhibition at 100 µM / inhibition at 10 µM / inhibition at 1 µM / inhibition at 0.1 µM / inhibition at 0.01 µM: Murine leukemia virus, SC-1, read-out: % Plaque Reduction
# Experimental: One such method is used to determine the effectiveness of representative compounds and compositions of the present invention in the Rauscher and LP-BMS Murine Leukemia Virus (MLV) In Vitro Assays.
# SC-1 cells were grown as monolayers in 6-well tissue culture plates (Falcon). The a test compound was added to the cultures at the time of virus inoculation (approximately 24 hours after the cells were seeded) and was present for 3 days, at which time the cultures were irradiated with UV light. All compounds were solubilized in DMSO prior to dilution in grown medium. The highest concentration of DMSO present in the cultures was 0.05%. The test cultures (triplicate cultures per drug concentrate) each contained 2 ml of test compound diluted in growth medium (Eagle's minimum) essential medium (EMEM) supplemented with 5% heat-inactivated fetal bovine serum (FBS) and 0.5 ml of the virus suspension diluted to produce a countable number of plaques per well. The six virus control cultures contained 2 ml of medium and 0.5 ml of the virus suspension. NSC606170(ddC) was included as a positive control. drug. Drug cytotoxicity control cultures (containing test compound) but no virus and cell control culture (containing no test compound) or virus were included in the assay. On day 3 post-virus inoculation, the cultures were irradiated and XC cells were added. Three days after V-irradiation, the cultures were fixed with formalin and stained with 0.1% crystal violet. The plaques were counted with the aid of a dissection microscope.
# (§1) Using the procedure, the following data is generated from representative compounds of the presnet invention.
# [1] = Dye conversion (MTT formazan) assay of drug-induced cytotoxicity; assay type: cell-based; settings: mouse, sc-1 cells; for cytotoxicity at 72 h, 1000 µM / viability at 72 h, 1000 µM: 1 × 10^-3 M; for cytotoxicity at 72 h, 1000 µM / cytotoxicity at 72 h, 100 µM / cytotoxicity at 72 h, 10 µM / cytotoxicity at 72 h, 1 µM / cytotoxicity at 72 h, 0.1 µM / cytotoxicity at 72 h, 0.01 µM: read-out: % Reduction; for viability at 72 h, 1000 µM / viability at 72 h, 100 µM / viability at 72 h, 10 µM / viability at 72 h, 1 µM / viability at 72 h, 0.1 µM / viability at 72 h, 0.01 µM: read-out: % of Control; for cytotoxicity at 72 h, 100 µM / viability at 72 h, 100 µM: 1 × 10^-4 M; for cytotoxicity at 72 h, 10 µM / viability at 72 h, 10 µM: 1 × 10^-5 M; for cytotoxicity at 72 h, 1 µM / viability at 72 h, 1 µM: 1 × 10^-6 M; for cytotoxicity at 72 h, 0.1 µM / viability at 72 h, 0.1 µM: 1 × 10^-7 M; for cytotoxicity at 72 h, 0.01 µM / viability at 72 h, 0.01 µM: 1 × 10^-8 M
# Experimental: (§2) A dye conversion assay to determine drug-induced cytotoxicity was performed. This assay is based on the conversion of MTT to a formazan product in living cells. This conversion results in a color change which can be detected spectrophotometrically. A 96-well tissue culture plate was seeded with […] per well at the time that the 6-well plates were seeded for the UV-XC plaque assay. The following day, the medium was decanted and the cell control cultures received 100 ul of medium. The drug controls received 80 ul of drug and 20 ul of medium such that the final concentration of drug was equivalent to that used in the 6-well plates. On day 3 after addition of the drug, 50 ul of a 2 mg/ml solution of MTT in EMEM with 5% heat-inactivated FBS were added each well. The culture was incubated for 7 hours and 100 ul of a 10% SDS: 0.01 N HCL solution was added to each well. The culture was incubated overnight and the following morning the optical density (O.D.) was read at 570 nm wavelength on a Perkin-Elmer spectrophotometer. The percent reduction in the drug-treated cell. O.D. reading compared to the control cell O.D. reading was calculated.
# as §1
# SC-1 cells = assay: as above; assay type: cell-based; settings: 570 nm
# Experimental: as §2, §1
# HIV-1 = assay: XTT assay of protection from HIV-1 cytopathic effect, infected, CEM-IW; assay type: cell-based, Human Immunodeficiency Virus; settings: Human immunodeficiency virus 1, CEM-IW, summary table; read-out: CEM-IW EC50
# Experimental: Another assay for testing the efficacy of the compounds is the procedure* used in the National Cancer Institute's test for agents active against Human Immunodeficiency Virus (HIV). It is designed to detect agents acting at any stage of the virus reproductive cycle. The assay basically involves the killing of T4 lymphocytes by HIV. Small amounts of HIV are added to cells, and a complete cycle of virus reproduction is necessary to obtain the required cell killing. Agents that interact with virions, cells, or virus gene-products to interfere with viral activities will protect cells from cytolysis. The system is automated in several features to accommodate large numbers of candidate agents and is generally designed to detect anti-HIV activity. However, compounds that degenerate, or are rapidly metabolized in the culture conditions may not show activity in this screen. All tests are compared with at least one positive (e.g., AZT-treated) control done at the same time under identical conditions.
# * Weislow. O. W., Kiser, R., Fine, D., Bader, J., Shoemaker, R. H., Boyd, M. R.: New soluble-formazan assay for HIV-1 cytopathic effects: application to high-flux screening of synthetic and natural products for AIDS-antiviral activity. J. Natl. Cancer Inst. 81:577-586, 1989.
# 1. The Candidate agent is dissolved in dimethyl sulfoxide (unless otherwise instructed) then diluted 1:100 in cell culture medium before preparing serial half-log10 dilutions. T4 lymphocytes (CEM cell line) are added and after a brief interval HIV-1 added, resulting in a 1:200 final dilution of the compound. Uninfected cells with the compound serve as a toxicity control, and infected and uninfected cells without compound serve as basic controls.
# 2. Cultures are incubated at 37° in a 5% carbon dioxide atmosphere for 6 days.
# 3. The tetrazolium salt, XTT, is added to all wells, and cultures are incubated to allow formazan color development by viable cells.
# 4. Individual wells are analyzed spectrophotometrically to quantitate formazan production, and in addition are viewed microscopically for detection of viable cells and confirmation of protective activity.
# 5. Drug-treated virus-infected cells are compared with drug-treated noninfected cells and with other appropriate controls (untreated infected and untreated noninfected: cells, drug-containing wells without cells, etc.) on the same plate.
# 6. Data are reviewed in comparison with other tests done at the same time and a determination about activity is made.
compound,measurement,setting,value
"Cc1ccc(S(=O)(=O)c2ccccc2[N+](=O)[O-])cc1 [Compound 2, 1-(4-Methylphenylsulfonyl)-2-nitrobenzene]",Mean plaque count,LP-BM5 MuLV; 1 × 10^-3 M,130
same,"Plaque count, replicate #1",LP-BM5 MuLV; 1 × 10^-3 M,162
same,"Plaque count, replicate #2",LP-BM5 MuLV; 1 × 10^-3 M,123
same,"Plaque count, replicate #3",LP-BM5 MuLV; 1 × 10^-3 M,104
same,Mean plaque count,LP-BM5 MuLV; 1 × 10^-4 M,50
same,"Plaque count, replicate #1",LP-BM5 MuLV; 1 × 10^-4 M,43
same,"Plaque count, replicate #2",LP-BM5 MuLV; 1 × 10^-4 M,37
same,"Plaque count, replicate #3",LP-BM5 MuLV; 1 × 10^-4 M,70
same,Mean plaque count,LP-BM5 MuLV; 1 × 10^-5 M,245
same,"Plaque count, replicate #1",LP-BM5 MuLV; 1 × 10^-5 M,265
same,"Plaque count, replicate #2",LP-BM5 MuLV; 1 × 10^-5 M,204
same,"Plaque count, replicate #3",LP-BM5 MuLV; 1 × 10^-5 M,267
same,Mean plaque count,LP-BM5 MuLV; 1 × 10^-6 M,264
same,"Plaque count, replicate #1",LP-BM5 MuLV; 1 × 10^-6 M,270
same,"Plaque count, replicate #2",LP-BM5 MuLV; 1 × 10^-6 M,217
same,"Plaque count, replicate #3",LP-BM5 MuLV; 1 × 10^-6 M,304
same,Mean plaque count,LP-BM5 MuLV; 1 × 10^-7 M,299
same,"Plaque count, replicate #1",LP-BM5 MuLV; 1 × 10^-7 M,327
same,"Plaque count, replicate #2",LP-BM5 MuLV; 1 × 10^-7 M,269
same,"Plaque count, replicate #3",LP-BM5 MuLV; 1 × 10^-7 M,301
same,Mean plaque count,LP-BM5 MuLV; 1 × 10^-8 M,318
same,"Plaque count, replicate #1",LP-BM5 MuLV; 1 × 10^-8 M,299
same,"Plaque count, replicate #2",LP-BM5 MuLV; 1 × 10^-8 M,340
same,"Plaque count, replicate #3",LP-BM5 MuLV; 1 × 10^-8 M,314
same,inhibition at 100 µM,LP-BM5 MuLV; 1 × 10^-4 M,82%
same,inhibition at 10 µM,LP-BM5 MuLV; 1 × 10^-5 M,14%
same,inhibition at 1 µM,LP-BM5 MuLV; 1 × 10^-6 M,8%
same,inhibition at 0.1 µM,LP-BM5 MuLV; 1 × 10^-7 M,0%
same,inhibition at 0.01 µM,LP-BM5 MuLV; 1 × 10^-8 M,0%
same,"cytotoxicity at 72 h, 1000 µM",[1],31%
same,"viability at 72 h, 1000 µM",[1],69%
same,"cytotoxicity at 72 h, 100 µM",[1],13%
same,"viability at 72 h, 100 µM",[1],87%
same,"cytotoxicity at 72 h, 10 µM",[1],8%
same,"viability at 72 h, 10 µM",[1],92%
same,"cytotoxicity at 72 h, 1 µM",[1],8%
same,"viability at 72 h, 1 µM",[1],92%
same,"cytotoxicity at 72 h, 0.1 µM",[1],8%
same,"viability at 72 h, 0.1 µM",[1],92%
same,"cytotoxicity at 72 h, 0.01 µM",[1],9%
same,"viability at 72 h, 0.01 µM",[1],91%
same,O.D. Reading,SC-1 cells; 1 × 10^-3 M,1.066
same,O.D. Reading,SC-1 cells; 1 × 10^-4 M,1.345
same,O.D. Reading,SC-1 cells; 1 × 10^-5 M,1.425
same,O.D. Reading,SC-1 cells; 1 × 10^-6 M,1.418
same,O.D. Reading,SC-1 cells; 1 × 10^-7 M,1.429
same,O.D. Reading,SC-1 cells; 1 × 10^-8 M,1.411
same,EC50,HIV-1,14.5 µM
"O=[N+]([O-])c1ccccc1S(=O)(=O)c1ccccc1 [Compound 1, 1-Nitro-2-(phenylsulfonyl)benzene]",Mean plaque count,LP-BM5 MuLV; 1 × 10^-4 M,254
same,"Plaque count, replicate #1",LP-BM5 MuLV; 1 × 10^-4 M,219
same,"Plaque count, replicate #2",LP-BM5 MuLV; 1 × 10^-4 M,216
same,"Plaque count, replicate #3",LP-BM5 MuLV; 1 × 10^-4 M,328
same,Mean plaque count,LP-BM5 MuLV; 1 × 10^-5 M,261
same,"Plaque count, replicate #1",LP-BM5 MuLV; 1 × 10^-5 M,335
same,"Plaque count, replicate #2",LP-BM5 MuLV; 1 × 10^-5 M,216
same,"Plaque count, replicate #3",LP-BM5 MuLV; 1 × 10^-5 M,232
same,Mean plaque count,LP-BM5 MuLV; 1 × 10^-6 M,255
same,"Plaque count, replicate #1",LP-BM5 MuLV; 1 × 10^-6 M,337
same,"Plaque count, replicate #2",LP-BM5 MuLV; 1 × 10^-6 M,218
same,"Plaque count, replicate #3",LP-BM5 MuLV; 1 × 10^-6 M,210
same,Mean plaque count,LP-BM5 MuLV; 1 × 10^-7 M,207
same,"Plaque count, replicate #1",LP-BM5 MuLV; 1 × 10^-7 M,201
same,"Plaque count, replicate #2",LP-BM5 MuLV; 1 × 10^-7 M,192
same,"Plaque count, replicate #3",LP-BM5 MuLV; 1 × 10^-7 M,228
same,Mean plaque count,LP-BM5 MuLV; 1 × 10^-8 M,246
same,"Plaque count, replicate #1",LP-BM5 MuLV; 1 × 10^-8 M,222
same,"Plaque count, replicate #2",LP-BM5 MuLV; 1 × 10^-8 M,204
same,"Plaque count, replicate #3",LP-BM5 MuLV; 1 × 10^-8 M,311
same,inhibition at 100 µM,LP-BM5 MuLV; 1 × 10^-4 M,11%
same,inhibition at 10 µM,LP-BM5 MuLV; 1 × 10^-5 M,9%
same,inhibition at 1 µM,LP-BM5 MuLV; 1 × 10^-6 M,11%
same,inhibition at 0.1 µM,LP-BM5 MuLV; 1 × 10^-7 M,27%
same,inhibition at 0.01 µM,LP-BM5 MuLV; 1 × 10^-8 M,14%
same,"cytotoxicity at 72 h, 1000 µM",[1],45%
same,"viability at 72 h, 1000 µM",[1],55%
same,"cytotoxicity at 72 h, 100 µM",[1],15%
same,"viability at 72 h, 100 µM",[1],85%
same,"cytotoxicity at 72 h, 10 µM",[1],3%
same,"viability at 72 h, 10 µM",[1],97%
same,"cytotoxicity at 72 h, 1 µM",[1],2%
same,"viability at 72 h, 1 µM",[1],98%
same,"cytotoxicity at 72 h, 0.1 µM",[1],0%
same,"viability at 72 h, 0.1 µM",[1],101%
same,"cytotoxicity at 72 h, 0.01 µM",[1],1%
same,"viability at 72 h, 0.01 µM",[1],99%
same,O.D. Reading,SC-1 cells; 1 × 10^-3 M,0.851
same,O.D. Reading,SC-1 cells; 1 × 10^-4 M,1.320
same,O.D. Reading,SC-1 cells; 1 × 10^-5 M,1.504
same,O.D. Reading,SC-1 cells; 1 × 10^-6 M,1.522
same,O.D. Reading,SC-1 cells; 1 × 10^-7 M,1.566
same,O.D. Reading,SC-1 cells; 1 × 10^-8 M,1.530
same,EC50,HIV-1,4.41 µM
